Measurements as given in PMC3050082 (Journal of medicinal chemistry, 2010).
Like-named read-outs stand apart in the source and are kept apart here.

Key:
HIV-1 NL4-3 [1] = assay: microbe, parasite or virus in culture; assay type: cell-based; conditions: for EC50: Human immunodeficiency virus 1, NL43, TZM-bl
HIV-1 IIIB [2] = assay: Inhibition of HIV-1 IIIB replication in MT-2 cells; assay type: cell-based; conditions: Human immunodeficiency virus 1, IIIB
HIV-1 RTMDR = assay: Multi-RTI-resistant HIV-1 RTMDR infection in TZM-bl cell line; assay type: cell-based; conditions: Human immunodeficiency virus 1, TZM-bl
MT-2 cells = conditions: cited from earlier work
HIV-1 NL4-3 [3] = conditions: NL4-3 in TZM-bl cell line; starred compounds, data were reported in ref [11]; cited from earlier work
HIV-1 IIIB [4] = conditions: cited from earlier work
TZM-bl cell line = conditions: cited from earlier work
HIV-1 A17 (K103N/Y181C) = assay: Multi-RTI-resistant HIV-1 A17 replication in MT-2 cells; assay type: cell-based; conditions: Human immunodeficiency virus 1, MT2
[5] = MT-2 cell line, XTT assay, starred compounds, data were reported in ref [11]
[6] = IIIB in MT-2 cell line, starred compounds, data were reported in ref [11]
[7] = TZM-bl cell line, XTT assay, starred compounds, data were reported in ref [11]

**Q.** With N#Cc1ccc(Nc2cc([N+](=O)[O-])c(Oc3ccc4cc(C#N)ccc4c3Br)cc2N)cc1 [compound 20, 4-(1-Bromo-6-cyano-2-naphthoxy)-N^1-(4′-cyanophenyl)-5-nitrobenzene-1,2-diamine] as the compound, how does the EC50 (HIV-1 NL4-3 [1]; NL4-3 in TZM-bl cell line) read?
**A.** Its EC50 is over 100 nM.

**Q.** What about the EC50 (HIV-1 IIIB [2]; MT2, IIIB in MT-2 cell line) of the same compound?
**A.** Its EC50 is over 100 nM.

**Q.** Which results are given for Cc1cc(I)cc(C)c1Oc1ccc(N)c(Nc2ccc(C#N)cc2)n1 [13a, N^2-(4′-Cyanophenyl)-6-(2″,6″-dimethyl-4″-iodo)phenoxypyridin-2,3-diamine]?
**A.** EC50 (HIV-1 RTMDR): 5.13 ± 1.15 nM; CC50 (MT-2 cells; [5]): 7240 nM; EC50 (HIV-1 NL4-3 [3]): 7.6 ± 2.3 nM; SI (selective index = CC50/EC50) (HIV-1 NL4-3 [3]): 2200; EC50 (HIV-1 IIIB [4]; [6]): 54 ± 4 nM; SI (selective index = CC50/EC50) (HIV-1 IIIB [4]; [6]): 134; CC50 (TZM-bl cell line; [7]): 16700 nM

**Q.** For CC(=O)CCc1cc(C)c(Oc2ccc(N)c(Nc3ccc(C#N)cc3)n2)c(C)c1 [13k, 6-[(4″-Butan-2-one)-2″,6″-dimethyl]phenoxy-N^2-(4′-cyanophenyl)pyridin-2,3-diamine], which EC50 (HIV-1 RTMDR) is on record?
**A.** The EC50 was 3.2 ± 0.8 nM.

**Q.** What about the EC50 (HIV-1 A17 (K103N/Y181C)) of the same compound?
**A.** The EC50 was 730 ± 58 nM.

**Q.** Which EC50 (HIV-1 IIIB [2]; MT2, IIIB in MT-2 cell line) does the source give for Cc1cc(C#CC2CC2)cc(C)c1Oc1ccc([N+](=O)[O-])c(Nc2ccc(C#N)cc2)n1 [11e, N-(4′-Cyanophenyl)-6-[4″-(2-cyclopropylethynyl)-2″,6″-dimethyl]phenoxy-3-nitro-pyridin-2-amine] here?
**A.** The EC50 was over 3000 nM.

**Q.** With C=CCc1cc(C)c(Oc2ccc(N)c(Nc3ccc(C#N)cc3)n2)c(C)c1 [13c, 6-(4″-Allyl-2″,6″-dimethyl)phenoxy-N^2-(4′-cyanophenyl)pyridin-2,3-diamine] as the compound, how does the EC50 (HIV-1 RTMDR) read?
**A.** The EC50 was 15.4 ± 1.6 nM.

**Q.** Which CC50 (MT-2 cells) does the source give for Cc1cc(C#CC(C)(C)O)cc(C)c1Oc1ccc([N+](=O)[O-])c(Nc2ccc(C#N)cc2)n1 [11d, N-(4′-Cyanophenyl)-6-[2″,6″-dimethyl-4″-(3-methylbut-3-ol-1-yn)phenoxy]-3-nitropyridin-2-amine] here?
**A.** Its CC50 is 23300 nM.

**Q.** And the “SI (selective index = CC50/EC50)” value (HIV-1 NL4-3 [3])?
**A.** The value was 1.09.

**Q.** And the “SI (selective index = CC50/EC50)” value (HIV-1 IIIB [4])?
**A.** The value was 2.61.

**Q.** And the CC50 (TZM-bl cell line)?
**A.** Its CC50 is 45200 nM.

**Q.** Which CC50 (MT-2 cells) does the source give for Cc1cc(C#CC(C)(C)O)cc(C)c1Oc1ccc(N)c(Nc2ccc(C#N)cc2)n1 [13d, N^2-(4′-Cyanophenyl)-6-[2″,6″-dimethyl-4″-(3-methylbut-3-ol-1-yn)phenoxy]pyridin-2,3-di amine] here?
**A.** The CC50 was 3540 nM.

**Q.** And the EC50 (HIV-1 NL4-3 [3])?
**A.** Its EC50 is 241 ± 14.7 nM.

**Q.** What about the “SI (selective index = CC50/EC50)” value (HIV-1 NL4-3 [3]) of the same compound?
**A.** The value was 36.

**Q.** And the EC50 (HIV-1 IIIB [4]; [6])?
**A.** The EC50 was 1580 ± 97 nM.

**Q.** What about the “SI (selective index = CC50/EC50)” value (HIV-1 IIIB [4]) of the same compound?
**A.** Its value is 2.25.

**Q.** What about the CC50 (TZM-bl cell line) of the same compound?
**A.** The CC50 was 8730 nM.

**Q.** For Cc1cc(/C=C/C#N)cc(C)c1Oc1ccc([N+](=O)[O-])c(Nc2ccc(C#N)cc2)c1 [12c, (E)-N^2-(4′-Cyanophenyl)-4-(4″-cyanovinyl-2″,6″-dimethyl)phenoxy-1-nitroaniline], which selectivity ratio (HIV-1 NL4-3 [1]; human) is on record?
**A.** The selectivity ratio was over 4690.

**Q.** For Cc1cc(/C=C/C#N)cc(C)c1Oc1ccc(N)c(Nc2ccc(C#N)cc2)n1 [13m, (E)-N^2-(4′-Cyanophenyl)-6-(4″-cyanovinyl-2″,6″-dimethyl)phenoxypyridin-2,3-diamine], which EC50 (HIV-1 RTMDR) is on record?
**A.** Its EC50 is 0.59 ± 0.09 nM.

**Q.** And the EC50 (HIV-1 A17 (K103N/Y181C))?
**A.** Its EC50 is 200 ± 10 nM.

**Q.** For Cc1cc(/C=C/C#N)cc(C)c1Oc1ccc([N+](=O)[O-])c(Nc2ccc(C#N)cc2)n1 [11m, (E)-N-(4′-Cyanophenyl)-6-(4″-cyanovinyl-2″,6″-dimethyl)phenoxy-3-nitropyridin-2-amine], which EC50 (HIV-1 RTMDR) is on record?
**A.** The EC50 was 14.8 ± 2.4 nM.

**Q.** With N#Cc1ccc(Nc2cc(Oc3ccc4cc(C#N)ccc4c3)c([N+](=O)[O-])cc2N)cc1 [compound 19, 4-(6-Cyano-2-naphthoxy)-N^2-(4′-cyanophenyl)-5-nitrobenzene-1,2-diamine] as the compound, how does the EC50 (HIV-1 NL4-3 [1]; NL4-3 in TZM-bl cell line) read?
**A.** The EC50 was over 100 nM.

**Q.** And the EC50 (HIV-1 IIIB [2]; MT2, IIIB in MT-2 cell line)?
**A.** The EC50 was over 100 nM.

**Q.** With C#Cc1cc(C)c(Oc2ccc([N+](=O)[O-])c(Nc3ccc(C#N)cc3)n2)c(C)c1 [11f, N^2-(4′-Cyanophenyl)-6-(2″,6″-dimethyl-4″-ethynyl)phenoxy-3-nitropyridin-2-amine] as the compound, how does the EC50 (HIV-1 RTMDR) read?
**A.** Its EC50 is 215 ± 33 nM.

**Q.** What about the CC50 (MT-2 cells; [5]) of the same compound?
**A.** Its CC50 is over 100000 nM.

**Q.** What about the EC50 (HIV-1 NL4-3 [3]) of the same compound?
**A.** Its EC50 is 111 ± 86 nM.

**Q.** What about the “SI (selective index = CC50/EC50)” value (HIV-1 NL4-3 [3]) of the same compound?
**A.** Its value is over 469.

**Q.** And the EC50 (HIV-1 IIIB [4]; [6])?
**A.** The EC50 was 247 ± 40 nM.

**Q.** And the “SI (selective index = CC50/EC50)” value (HIV-1 IIIB [4]; [6])?
**A.** Its value is over 405.

**Q.** And the CC50 (TZM-bl cell line; [7])?
**A.** The CC50 was over 52100 nM.

**Q.** What does the source list for Cc1cc(I)cc(C)c1Oc1ccc([N+](=O)[O-])c(Nc2ccc(C#N)cc2)n1 [11a, N^2-(4′-Cyanophenyl)-6-(2″,6″-dimethyl-4″-iodo)phenoxy-3-nitropyridin-2-amine]?
**A.** EC50 (HIV-1 RTMDR): 94.3 ± 9 nM; CC50 (MT-2 cells; [5]): 22900 nM; EC50 (HIV-1 NL4-3 [3]): 60.7 ± 24 nM; SI (selective index = CC50/EC50) (HIV-1 NL4-3 [3]): >675; EC50 (HIV-1 IIIB [4]; [6]): 79 ± 2 nM; SI (selective index = CC50/EC50) (HIV-1 IIIB [4]; [6]): 283; CC50 (TZM-bl cell line; [7]): > 41200 nM

**Q.** With Cc1cc(C#N)cc(C)c1Oc1ccc(N)c(Nc2ccc(C#N)cc2)n1 [compound 3, reference compound] as the compound, how does the EC50 (HIV-1 NL4-3 [1]; NL4-3 in TZM-bl cell line) read?
**A.** The EC50 was 0.68 ± 0.03 nM.

**Q.** And the EC50 (HIV-1 RTMDR)?
**A.** Its EC50 is 0.96 ± 0.3 nM.

**Q.** For C#Cc1cc(C)c(Oc2ccc(N)c(Nc3ccc(C#N)cc3)n2)c(C)c1 [13f, N^2-(4′-Cyanophenyl)-6-(2″,6″-dimethyl-4″-ethynyl)phenoxypyridin-2,3-diamine], which EC50 (HIV-1 RTMDR) is on record?
**A.** The EC50 was 9 ± 2 nM.

**Q.** What about the CC50 (MT-2 cells; [5]) of the same compound?
**A.** Its CC50 is 9280 nM.

**Q.** And the EC50 (HIV-1 NL4-3 [3])?
**A.** The EC50 was 6.7 ± 1 nM.

**Q.** And the “SI (selective index = CC50/EC50)” value (HIV-1 NL4-3 [3])?
**A.** Its value is 1484.

**Q.** And the “SI (selective index = CC50/EC50)” value (HIV-1 IIIB [4]; [6])?
**A.** The value was 221.

**Q.** What about the EC50 (HIV-1 A17 (K103N/Y181C)) of the same compound?
**A.** The EC50 was 1430 ± 260 nM.

**Q.** What about the CC50 (TZM-bl cell line; [7]) of the same compound?
**A.** Its CC50 is 9940 nM.

**Q.** With Cc1cc(C#CC2CC2)cc(C)c1Oc1ccc(N)c(Nc2ccc(C#N)cc2)n1 [13e, N^2-(4′-Cyanophenyl)-6-[4″-(2-cyclopropylethynyl)-2″,6″-dimethylphenoxy]pyridin-2,3-diamine] as the compound, how does the EC50 (HIV-1 RTMDR) read?
**A.** The EC50 was 121 ± 17.7 nM.

**Q.** And the EC50 (HIV-1 A17 (K103N/Y181C))?
**A.** Its EC50 is over 10000 nM.

**Q.** What does the source list for N#Cc1ccc(Nc2cc(Oc3ccc4cc(C#N)ccc4c3)c([N+](=O)[O-])cc2[N+](=O)[O-])cc1 [compound 17, 5-(6-Cyano-2-naphthoxy)-N^1-(4′-cyanophenyl)-2,4-dinitroaniline]?
**A.** EC50 (HIV-1 NL4-3 [1]): > 100 nM; EC50 (HIV-1 IIIB [2]; MT2): > 100 nM
